Assay [1] addresses Histone deacetylase 1 (Homo sapiens, UniProt Q13547). The assay can be described thus: Inhibition of human HDAC1 using rhodamine as substrate after 1 hrs by fluorescence assay.
In assay [2] the target is Histone deacetylase 2 (Homo sapiens, UniProt Q92769). The assay can be described thus: Inhibition of human HDAC2 using rhodamine as substrate after 1 hrs by fluorescence assay.
The target of assay [3] is T1, Protein deacetylase HDAC6 (Homo sapiens, UniProt Q9UBN7).
T1 sequence (Q9UBN7 whole entry): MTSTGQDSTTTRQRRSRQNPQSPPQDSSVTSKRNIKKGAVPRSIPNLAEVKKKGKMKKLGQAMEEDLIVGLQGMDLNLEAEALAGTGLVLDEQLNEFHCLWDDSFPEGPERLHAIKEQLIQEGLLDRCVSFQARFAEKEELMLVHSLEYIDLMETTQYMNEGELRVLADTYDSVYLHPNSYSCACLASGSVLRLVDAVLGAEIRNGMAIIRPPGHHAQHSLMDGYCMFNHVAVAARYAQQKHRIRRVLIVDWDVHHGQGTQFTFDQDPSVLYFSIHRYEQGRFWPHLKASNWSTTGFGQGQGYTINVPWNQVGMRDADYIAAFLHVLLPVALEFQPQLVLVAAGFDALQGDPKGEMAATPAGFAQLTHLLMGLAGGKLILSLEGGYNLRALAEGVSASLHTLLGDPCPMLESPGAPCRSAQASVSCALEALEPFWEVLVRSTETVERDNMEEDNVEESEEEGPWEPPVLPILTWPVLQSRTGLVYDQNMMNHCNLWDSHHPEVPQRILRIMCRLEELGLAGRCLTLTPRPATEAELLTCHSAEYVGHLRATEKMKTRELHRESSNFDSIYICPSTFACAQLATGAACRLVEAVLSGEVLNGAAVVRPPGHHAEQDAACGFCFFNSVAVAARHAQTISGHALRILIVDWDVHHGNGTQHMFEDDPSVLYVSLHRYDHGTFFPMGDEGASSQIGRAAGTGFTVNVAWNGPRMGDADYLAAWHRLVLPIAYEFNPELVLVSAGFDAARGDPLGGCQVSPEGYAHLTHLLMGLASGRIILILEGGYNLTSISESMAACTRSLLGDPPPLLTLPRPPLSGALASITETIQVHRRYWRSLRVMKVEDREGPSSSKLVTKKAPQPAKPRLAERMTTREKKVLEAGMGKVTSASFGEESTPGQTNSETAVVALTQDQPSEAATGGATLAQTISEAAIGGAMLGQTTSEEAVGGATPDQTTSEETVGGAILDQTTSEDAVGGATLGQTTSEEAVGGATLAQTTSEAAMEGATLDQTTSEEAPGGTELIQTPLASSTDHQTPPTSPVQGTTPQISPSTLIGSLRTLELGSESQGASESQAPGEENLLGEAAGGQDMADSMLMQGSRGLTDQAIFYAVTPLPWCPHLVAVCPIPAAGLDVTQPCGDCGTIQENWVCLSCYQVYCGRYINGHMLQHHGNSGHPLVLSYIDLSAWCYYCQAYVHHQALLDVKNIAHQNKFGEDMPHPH
The assay can be described thus: Inhibition of human HDAC6 using rhodamine as substrate after 1 hrs by fluorescence assay.

Chain of Histone deacetylase 2 (Q92769 whole entry): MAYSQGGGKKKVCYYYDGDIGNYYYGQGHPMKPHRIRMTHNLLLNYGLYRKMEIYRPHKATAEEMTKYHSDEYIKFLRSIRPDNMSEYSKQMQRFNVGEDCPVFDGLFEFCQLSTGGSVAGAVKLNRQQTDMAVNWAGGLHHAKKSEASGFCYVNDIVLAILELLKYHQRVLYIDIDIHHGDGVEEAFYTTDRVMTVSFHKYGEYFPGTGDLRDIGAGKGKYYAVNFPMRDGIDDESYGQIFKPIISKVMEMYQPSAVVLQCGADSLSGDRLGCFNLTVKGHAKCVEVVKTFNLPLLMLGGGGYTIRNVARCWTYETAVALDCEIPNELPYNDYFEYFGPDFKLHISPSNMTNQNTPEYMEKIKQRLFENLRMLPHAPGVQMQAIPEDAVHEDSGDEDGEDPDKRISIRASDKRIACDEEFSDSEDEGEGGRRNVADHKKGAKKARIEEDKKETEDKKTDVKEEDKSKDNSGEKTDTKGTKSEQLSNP
Chain of Histone deacetylase 1 (Q13547 whole entry): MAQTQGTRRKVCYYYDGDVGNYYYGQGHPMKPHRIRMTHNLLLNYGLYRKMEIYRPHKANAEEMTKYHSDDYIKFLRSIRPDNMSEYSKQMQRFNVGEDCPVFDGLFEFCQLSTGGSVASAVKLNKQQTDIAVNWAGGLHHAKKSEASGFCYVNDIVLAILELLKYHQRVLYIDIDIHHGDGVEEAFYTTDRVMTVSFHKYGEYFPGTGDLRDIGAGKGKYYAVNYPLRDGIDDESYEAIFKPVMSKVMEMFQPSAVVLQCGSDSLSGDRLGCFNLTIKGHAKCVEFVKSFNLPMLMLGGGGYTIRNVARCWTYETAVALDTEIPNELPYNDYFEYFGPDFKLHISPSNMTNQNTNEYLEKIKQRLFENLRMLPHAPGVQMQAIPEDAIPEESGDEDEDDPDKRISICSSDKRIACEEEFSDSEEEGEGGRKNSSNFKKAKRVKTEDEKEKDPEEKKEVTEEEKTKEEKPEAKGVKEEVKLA

Usually IC50 stands for the midpoint of a concentration-inhibition curve. Lower therefore signals greater potency in that assay. Take `N[C@H](Cc1cccc(Cl)c1)C(=O)N1CCN(C(=O)c2cc(F)ccc2F)CC1`: the IC50 in assay [1], in assay [2] and in assay [3] was above 30 µM in each case.
Regarding `N[C@H](Cc1ccc(Cl)cc1Cl)C(=O)N1Cc2ccccc2C1`, the IC50 is 3.9 µM in assay [2] and above 30 µM in assay [3].

Values taken from ChEMBL document CHEMBL1811912, “Human HDAC isoform selectivity achieved via exploitation of the acetate release channel with structurally unique small molecule inhibitors” (Bioorg Med Chem, 2011).
